Measurements: patent US11548900B2, “Oxazino-quinazoline and oxazino-quinoline type compound, preparation method and uses thereof” (BEIJING SCITECH-MQ PHARMACEUTICALS LIMITED, priority 2018, dated 2023)

Experiments:
BT474 cells = assay: Inhibition of cell proliferation, BT474 (CCK-8, 72 h); format: cell-based; conditions: Homo sapiens, BT-474, 72 h incubation
Outline: (§1)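 BT474 and HCC827 seeded at 10,000 and 3000 cells/well respectively, cultured overnight, then exposed to 10-point 3-fold compound dilutions (top stock 10 mM; 0.25% DMSO final) for 72 h. Viability by CCK-8, OD450; survival normalised to untreated and cell-free blanks, IC50 from curve fit.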

HER2 kinase = HER2 kinase (Homo sapiens (Human), UniProt P04626); assay: Inhibition of HER2 kinase activity (ULight-labeled PolyGT substrate); format: biochemical; conditions: HER2 kinase 10 nM, ATP 10 μM, 2 hours
Outline: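 HER2 kinase at 10 nM with 10 μM ATP and 100 nM ULight-PolyGT, 5 min enzyme–compound preincubation, then 2 h reaction at room temperature in the dark. Compounds at 11 3-fold concentrations, 2.5 μM top to 0.042 nM, 1% DMSO, duplicates. TR-FRET 665/615 ratio; IC50 from inhibition versus DMSO and no-compound controls.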

EGFR kinase = EGFR kinase (Homo sapiens (Human), UniProt P00533); assay: Inhibition of EGFR kinase activity (ULight-labeled JAK-1 (Tyr1023) peptide substrate); format: biochemical; conditions: EGFR kinase 0.35 nM, ATP 150 μM, 2 hours
Outline: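 TR-FRET kinase assay: 0.35 nM EGFR, 150 μM ATP, 100 nM substrate, 2 h at room temperature in the dark after 5 min enzyme-compound preincubation, 1% DMSO. Compounds tested as 11-point 3-fold series, 2.5 μM to 0.042 nM final, duplicate; IC50 from 665/615 nm ratio-based inhibition.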

HCC827 cells = assay: Inhibition of cell proliferation, HCC827 (CCK-8, 72 h); format: cell-based; conditions: Homo sapiens, 72 h incubation
Outline: as §1

Chain of HER2 kinase (P04626 23-1255): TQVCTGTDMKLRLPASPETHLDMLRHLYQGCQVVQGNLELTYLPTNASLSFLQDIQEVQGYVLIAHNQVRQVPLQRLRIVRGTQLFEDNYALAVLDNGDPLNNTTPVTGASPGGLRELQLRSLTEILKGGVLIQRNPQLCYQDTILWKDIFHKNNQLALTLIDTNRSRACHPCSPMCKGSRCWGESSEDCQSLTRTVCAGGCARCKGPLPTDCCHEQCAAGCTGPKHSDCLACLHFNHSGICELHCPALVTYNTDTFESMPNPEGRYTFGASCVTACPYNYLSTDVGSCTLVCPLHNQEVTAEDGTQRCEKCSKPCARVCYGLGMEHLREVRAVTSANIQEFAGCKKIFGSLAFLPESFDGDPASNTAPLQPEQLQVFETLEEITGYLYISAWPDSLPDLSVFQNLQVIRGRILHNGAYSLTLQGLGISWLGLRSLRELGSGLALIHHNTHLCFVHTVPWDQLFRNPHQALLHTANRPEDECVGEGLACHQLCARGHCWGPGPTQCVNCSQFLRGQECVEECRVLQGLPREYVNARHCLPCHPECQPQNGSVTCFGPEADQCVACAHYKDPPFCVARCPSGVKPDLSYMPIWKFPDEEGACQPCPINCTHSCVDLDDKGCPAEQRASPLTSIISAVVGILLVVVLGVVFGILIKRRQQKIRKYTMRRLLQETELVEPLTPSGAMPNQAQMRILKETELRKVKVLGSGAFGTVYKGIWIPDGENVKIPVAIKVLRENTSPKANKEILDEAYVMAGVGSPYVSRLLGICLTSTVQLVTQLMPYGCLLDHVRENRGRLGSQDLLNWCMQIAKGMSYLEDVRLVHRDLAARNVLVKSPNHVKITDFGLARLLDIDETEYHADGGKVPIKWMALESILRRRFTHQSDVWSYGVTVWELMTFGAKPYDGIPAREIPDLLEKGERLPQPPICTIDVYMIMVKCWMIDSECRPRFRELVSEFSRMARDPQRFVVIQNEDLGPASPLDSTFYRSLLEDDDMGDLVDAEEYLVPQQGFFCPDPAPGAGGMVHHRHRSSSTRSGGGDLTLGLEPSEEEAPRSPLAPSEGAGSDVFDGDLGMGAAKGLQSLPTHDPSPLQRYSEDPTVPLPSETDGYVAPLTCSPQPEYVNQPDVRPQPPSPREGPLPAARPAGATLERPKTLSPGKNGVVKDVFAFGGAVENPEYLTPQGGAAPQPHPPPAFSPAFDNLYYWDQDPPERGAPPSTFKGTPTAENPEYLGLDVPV
Chain of EGFR kinase (P00533 25-1210): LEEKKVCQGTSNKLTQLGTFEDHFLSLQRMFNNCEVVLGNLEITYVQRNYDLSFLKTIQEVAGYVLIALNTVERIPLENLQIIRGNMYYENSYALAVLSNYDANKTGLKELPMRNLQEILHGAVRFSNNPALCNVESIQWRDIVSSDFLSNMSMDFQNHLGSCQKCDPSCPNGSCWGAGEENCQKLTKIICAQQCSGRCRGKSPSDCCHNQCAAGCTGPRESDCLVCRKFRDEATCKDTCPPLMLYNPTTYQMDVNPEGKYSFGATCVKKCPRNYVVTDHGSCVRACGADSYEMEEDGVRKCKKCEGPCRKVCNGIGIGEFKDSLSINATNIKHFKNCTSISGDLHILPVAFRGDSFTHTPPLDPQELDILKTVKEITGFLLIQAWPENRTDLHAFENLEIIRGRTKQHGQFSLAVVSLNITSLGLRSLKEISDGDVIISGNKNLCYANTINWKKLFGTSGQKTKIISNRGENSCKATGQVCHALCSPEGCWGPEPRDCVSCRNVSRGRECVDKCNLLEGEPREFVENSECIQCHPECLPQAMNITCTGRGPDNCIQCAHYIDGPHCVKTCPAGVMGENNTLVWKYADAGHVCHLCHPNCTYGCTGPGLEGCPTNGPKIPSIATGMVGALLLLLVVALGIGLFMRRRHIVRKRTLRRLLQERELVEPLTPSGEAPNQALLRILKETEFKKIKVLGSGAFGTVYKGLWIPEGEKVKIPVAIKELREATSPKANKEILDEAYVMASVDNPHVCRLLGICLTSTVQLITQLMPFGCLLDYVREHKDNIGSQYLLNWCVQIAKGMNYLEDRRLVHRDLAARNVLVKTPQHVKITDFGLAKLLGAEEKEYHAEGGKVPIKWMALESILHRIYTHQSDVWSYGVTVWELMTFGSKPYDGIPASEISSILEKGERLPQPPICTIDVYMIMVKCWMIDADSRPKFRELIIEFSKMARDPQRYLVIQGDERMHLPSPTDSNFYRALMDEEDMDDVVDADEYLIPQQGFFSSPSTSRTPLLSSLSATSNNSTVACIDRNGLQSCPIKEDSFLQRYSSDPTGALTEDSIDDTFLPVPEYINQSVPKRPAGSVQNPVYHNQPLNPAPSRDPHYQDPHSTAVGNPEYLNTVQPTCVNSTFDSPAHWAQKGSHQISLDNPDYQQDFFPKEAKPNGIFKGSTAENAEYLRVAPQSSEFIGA

Row | Structure (SMILES) | IC50 (BT474 cells) | IC50 (HER2 kinase) | IC50 (EGFR kinase) | IC50 (HCC827 cells)
1 | O=C(/C=C/CN1CCCC1)N1CCOc2c1ccc1ncnc(Nc3ccc(OCc4ccccn4)c(Cl)c3)c21 [Example 106, (E)-1-(10-((3-chloro-4-(pyridin-2-ylmethoxy)phenyl)amino)-2,3-dihydro-4H-[1,4]oxazino[2,3-f]quinazolin-4-yl)-4-(pyrrolidin-1-yl)but-2-en-1-one] | ≤ 50 nM | ≤ 50 nM | ≤ 50 nM | 50 to 500 nM
2 | O=C(/C=C/CN1CCCCC1)N1CCOc2c1ccc1ncnc(Nc3ccc(OCc4ccccn4)c(Cl)c3)c21 [Example 107, (E)-1-(10-((3-chloro-4-(pyridin-2-ylmethoxy)phenyl)amino)-2,3-dihydro-4H-[1,4]oxazino[2,3-f]quinazolin-4-yl)-4-(piperidin-1-yl)but-2-en-1-one] | ≤ 50 nM | ≤ 50 nM | ≤ 50 nM | 500 to 5000 nM
3 | CC(=O)N1CCN(C/C=C/C(=O)N2CCOc3c2ccc2ncnc(Nc4ccc(OCc5ccccn5)c(Cl)c4)c32)CC1 [Example 108, (E)-4-(4-acetylpiperazin-1-yl)-1-(10-((3-chloro-4-(pyridin-2-ylmethoxy)phenyl)amino)-2,3-dihydro-4H-[1,4]oxazino[2,3-f]quinazolin-4-yl)but-2-en-1-one] | ≤ 50 nM | ≤ 50 nM | ≤ 50 nM | 50 to 500 nM
4 | CN(C/C=C/C(=O)N1CCOc2c1ccc1ncnc(Nc3ccc(OCc4ccccn4)c(Cl)c3)c21)C1CCC1 [Example 110, (E)-1-(10-((3-chloro-4-(pyridin-2-ylmethoxy)phenyl)amino)-2,3-dihydro-4H-[1,4]oxazino[2,3-f]quinazolin-4-yl)-4-(cyclobutyl(methyl)amino)but-2-en-1-one] | ≤ 50 nM | ≤ 50 nM | ≤ 50 nM | 50 to 500 nM
5 | CC(C)N(C)C/C=C/C(=O)N1CCOc2c1ccc1ncnc(Nc3ccc(OCc4ccccn4)c(Cl)c3)c21 [Example 111, (E)-1-(10-((3-chloro-4-(pyridin-2-ylmethoxy)phenyl)amino)-2,3-dihydro-4H-[1,4]oxazino[2,3-f]quinazolin-4-yl)-4-(isopropyl(methyl)amino)but-2-en-1-one] | ≤ 50 nM | ≤ 50 nM | ≤ 50 nM | 500 to 5000 nM

Other lines, results leading:

Row | IC50 (BT474 cells) | IC50 (HER2 kinase) | IC50 (EGFR kinase) | IC50 (HCC827 cells) | Structure (SMILES)
6 | ≤ 50 nM | ≤ 50 nM | ≤ 50 nM | 50 to 500 nM | O=C(/C=C/CN1CCOCC1)N1CCOc2c1ccc1ncnc(Nc3ccc(OCc4cccc(F)c4)c(Cl)c3)c21 [Example 96, (E)-1-(10-((3-chloro-4-((3-fluorobenzyl)oxy)phenyl)amino)-2,3-dihydro-4H-[1,4]oxazino[2,3-f]quinazolin-4-yl)-4-morpholinobut-2-en-1-one]
7 | ≤ 50 nM | ≤ 50 nM | ≤ 50 nM | 50 to 500 nM | CN1CCN(C/C=C/C(=O)N2CCOc3c2ccc2ncnc(Nc4ccc(OCc5ccccn5)c(Cl)c4)c32)CC1 [Example 104, (E)-1-(10-((3-chloro-4-(pyridin-2-ylmethoxy)phenyl)amino)-2,3-dihydro-4H-[1,4]oxazino[2,3-f]quinazolin-4-yl)-4-(4-methylpiperazin-1-yl)but-2-en-1-one]
8 | ≤ 50 nM | ≤ 50 nM | ≤ 50 nM | 50 to 500 nM | CCN(CC)C/C=C/C(=O)N1CCOc2c1ccc1ncnc(Nc3ccc(OCc4ccccn4)c(Cl)c3)c21 [Example 105, (E)-1-(10-((3-chloro-4-(pyridin-2-ylmethoxy)phenyl)amino)-2,3-dihydro-4H-[1,4]oxazino[2,3-f]quinazolin-4-yl)-4-(diethylamino)but-2-en-1-one]
